From publication PMC10447463, “Data-mining unveils structure–property–activity correlation of viral infectivity enhancing self-assembling peptides” (Nature Communications, 2023)
Read-outs that look alike come from different tables or passages of the source.

Experiments:
[1] = tested on: HIV-1 infection of TZM-bl cells; experiment: HIV-1 infectivity enhancement assay, β-galactosidase luminescence; format: cell-based; details: for Absolute Infectivity / RLU /s (Feb2021): figures match the 1.3 µM column; for Rel-to EFC / n-fold to virus: Fig S8 panels B, D; for infectivity: infectivity class (low / medium / high) of each library peptide, main list in c1-c6, same classes repeated in sub-lists of sequences containing the hydrophobicity/charge patterns P+,H0,P+,H0,P0,H0,P0, P+,H0,P0,H0,P0,H0,P0, P+,H0,P0,H0; for Log10 Inf. rel. to EF-C: log10 of HIV-1 infection of TZM-bl cells relative to EF-C, Fig S15 source data, asymmetric std dev errors
[2] = Turbidity, derived count rate of scattered light; format: physicochemical; details: for Log Count Rate: log of derived count rate; for Count Rate: turbidity
Procedure, shortened: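 Samples: 1 mg/mL in PBS pH 7.4 (from DMSO), 1 d at RT, then diluted in 1 mM KCl immediately before measurement. Triplicates, two independent runs averaged.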

[3] = format: physicochemical; details: STD prep
[4] = Feb2021, Log10 of infectivity relative to EF-C
[5] = Feb2021, infectivity relative to virus only
[6] = Feb2021, n-fold infectivity relative to EF-C
[7] = infectivity enhancement relative to EF-C
[8] = infectivity n-fold relative to virus alone
[9] = Fig S8 panels A, C, asymmetric log errors
[10] = Fig S8 panels B, D, derived count rate of scattered light
[11] = derived count rate of scattered light
[12] = derived count rate of scattered light, mean, std deviation in next column

| Sequence | Log10 of Rel to EFC (Feb2021) [1, 4] | Absolute Infectivity / RLU /s (Feb2021) ([1]; Feb2021) | n-fold to virus (Feb2021) [1, 5] | Rel-to EFC (Feb-2021) [1, 6] | Rel-to EFC [1, 7] | n-fold to virus [1, 8] | infectivity [1] | Log10 Inf. rel. to EF-C [1] | Log Count Rate [2, 9] | Log Count Rate ([2]; Fig S8 panels B, D) | Count Rate [2, 10] | Zeta Count Rate Category ([2]; category 1 / 0, no key given) | Zeta Count Rate / kcps [2, 11] | Zeta Count Rate / kcps [2, 12] | TEM: 1= fibrils, 0= aggregates (micelle), 0.5 = aggregates and fibrils, -1 = nothing obersved, STD prep [3] | also measured |
| --- | --- | --- | --- | --- | --- | --- | --- | --- | --- | --- | --- | --- | --- | --- | --- | --- |
| KIKQIINMWQ [JG2] | -0.4604 | 9363 RLU /s | 14.55 | 0.3464 | 0.3464 | 14.5544 | medium | -0.4604 | 2.789 | 2.789 | 615.53 | 1 | 615.5 kcps | 615.5 kcps | 1 | Rel-to EFC (Feb-2021) ([1]; Feb2021, n-fold enhancement relative to EF-C): 0.3464; Rel-to EFC (Feb-2021) ([1]; infectivity enhancement relative to EF-C (=1), Feb2021 run): 0.3464; n-fold to virus (Feb2021) ([1]; infectivity n-fold relative to virus only, Feb2021 run): 14.55; Log10 of Rel to EFC (Feb2021) ([1]; log10 of infectivity relative to EF-C, Feb2021 run): -0.4604; Zeta Count Rate Category ([2]; category 1 or 0 from count rate, key not given): 1; Zeta Count Rate / kcps ([2]; derived count rate from zeta measurement, mean): 615.5 kcps; Zeta Count Rate Category ([2]; key not given): 1; TEM: 1= fibrils, 0= aggregates (micelle), 0.5 = aggregates and fibrils, -1 = nothing obersved, STD prep ([3]; FigS26): 1 |
| CKFKQFFNM [CK14] | -0.3892 | 15720 RLU /s | 17.15 | 0.4081 | 0.4081 | 17.15 | medium | -0.3892 | 4.436 | 4.436 | 27264.3 | 1 | 27264.3 kcps | 27264.3 kcps | 1 | Rel-to EFC (Feb-2021) ([1]; Feb2021, infectivity enhancement relative to EF-C): 0.4081; n-fold to virus (Feb2021) ([1]; Feb2021 run, infectivity n-fold relative to virus alone): 17.15; Log10 of Rel to EFC (Feb2021) ([1]; Feb2021 run, log10 of infectivity relative to EF-C): -0.3892; Rel-to EFC (Feb-2021) ([1]; Feb2021 run, n-fold infectivity relative to EF-C): 0.4081; Zeta Count Rate Category ([2]; category 1 or 0 derived from the count rate, key not given): 1; Zeta Count Rate / kcps ([2]; derived count rate of scattered light, mean, std deviation in separate column): 27264.3 kcps |
